Data reported in patent US20240016938A1, “METHODS FOR INCREASING THE BIOAVAILABILITY OF NUCLEOSIDE MEDICINAL AGENTS” (ZOGENIX MDS, INC., priority 2022, published 2024).
Like-named read-outs stand apart in the source and are kept apart here.

Assay: Phase 1 open-label, fixed-sequence, single-ascending dose and food-effect PK study of MT1621 in adult healthy subjects
Assay type: in vivo, human
Procedure: A phase 1 study was conducted as an open-label, fixed-sequence, single-ascending dose study in adult healthy subjects designed to evaluate the safety, tolerability, PK, and food-effect of MT1621 (dC and dT). To evaluate the PK of MT1621, the combination was administered at three different doses. Treatment A was a 43.3 mg/kg dose of MT1621 (i.e., a 43.3 mg/kg dose of dC and a 43.3 mg/kg dose of dT (each approximately equivalent to 1 dose of a 130 mg/kg daily dose, divided 3 times daily [TID])) in healthy male and female subjects under fasting conditions; Treatment B was an 86.7 mg/kg dose of MT1621 (i.e., a 86.7 mg/kg dose of dC and a 86.7 mg/kg dose of dT (each approximately equivalent to 1 dose of a 260 mg/kg daily dose, divided TID)) in healthy male and female subjects under fasting conditions; and Treatment C was a 133.3 mg/kg dose of MT1621 (i.e., a 133.3 mg/kg dose of dC and a 133.3 mg/kg dose of dT (each approximately equivalent to a 400 mg/kg daily dose, divided TID)) in healthy male and female subjects under fasting conditions. Additionally, Treatment D was a 133.3 mg/kg dose of MT1621 (i.e., a 133.3 mg/kg dose of dC and a 133.3 mg/kg dose of dT (each approximately equivalent to a 400 mg/kg daily dose, divided TID) in healthy male and female subjects under fed conditions, to determine the effect of a high-fat meal on the single-dose PK of MT1621.
Methodology of open-label, Phase 1, fixed-sequence, single-dose, dose escalation, and food-effect study. Fourteen (14) healthy, adult, male and female subjects were enrolled with an approximately equal distribution (at least 40% of each sex) between male and female subjects.
On Day 1 of each period, subjects received 1 of 3 dose levels of MT1621 under fasting conditions as escalating single doses over 3 periods in Part A (Treatments A, B, and C in Periods 1, 2, and 3, respectively) and with the highest dose under fed conditions in Part B (Treatment D in Period 4). Four (4) of 14 subjects that completed Part A (Periods 1 to 3) could not complete Part B (Treatment D in Period 4) during the original confinement. These subjects were then to return to the clinical unit and continue the study to complete Part B (Treatment D in Period 4); 2 of the 4 subjects completed Part B.
Each treatment was assessed by blood and urine PK sampling pre-dose and up to 48 hours post-dose for the determination of dC and dT in plasma and urine PK, and possible future analysis of blood for PD biomarkers.
A washout period of at least 2 days without drug between each treatment administration was maintained. Fourteen subjects were enrolled in the study, and 12 subjects completed the study. Data from 14 subjects were included in the PK analysis of Periods 1, 2, and 3 and data from 12 subjects were included in the PK analysis of Period 4.
Study drug administered in Example 1 was 0.5 g dC and 0.5 g dT powders for solution and were reconstituted in juice or water.
After reconstitution in a fixed amount of water or juice, the solution was administered via measured volume to provide the amounts specified in Studies A, B, C, and D.
MT1621 was administered orally at Hour 0 on Day 1, following an overnight fast for Treatments A, B, and C and within 5 minutes of consumption of a standardized high-fat breakfast (which included eggs, bacon, and toast with butter) for Treatment D.
Blood samples for the determination of plasma dC and dT concentrations were collected on Day 1 of each period at pre-dose (0 hour), and at 0.25, 0.5, 1, 1.5, 2, 3, 4, 5, 6, 8, 12, 24, and 48 after study drug administration. In Period 4, blood was collected for the 48-hour PK sample; for Periods 1 through 3, the 48-hour PK sample was collected at the same time as the pre-dose PK sample from the next period so only 1 sample was collected for both PK time points. It should be pointed out that Periods 1-3 used sampling up to 24 hours for PK while Period 4 used the complete 48-hour profile. […]

[1] = 100*(test/reference): 133.3 mg/kg MT1621 fed vs fasted, baseline-adjusted plasma
[2] = Treatment A: single 43.3 mg/kg MT1621, fasted, baseline-adjusted plasma, arithmetic mean ± SD
[3] = Treatment B: single 86.7 mg/kg MT1621, fasted, baseline-adjusted plasma, arithmetic mean ± SD
[4] = Treatment D: single 133.3 mg/kg MT1621, fed (high-fat breakfast), baseline-adjusted plasma, arithmetic mean ± SD

Nc1ccn([C@H]2C[C@H](O)[C@@H](CO)O2)c(=O)n1 [dC, β-D-2′-deoxycytidine]
increase in baseline adjusted AUC, fed compared to fasted (133.3 mg/kg MT1621, plasma): 137%
increase in baseline adjusted Cmax, fed compared to fasted (133.3 mg/kg MT1621, plasma): 79%
AUC0-t GMR (%) [1]: 237.18%
Cmax GMR (%) [1]: 178.88%
AUC%extrap [2]: 11.36 ± 8.5281%
Kel [2]: 0.1280 ± 0.1276 h⁻¹
AUC%extrap [3]: 12.46 ± 13.194%
Kel [3]: 0.2030 ± 0.1938 h⁻¹
AUC%extrap (Treatment C: single 133.3 mg/kg MT1621, fasted, baseline-adjusted plasma, arithmetic mean ± SD): 1.152 ± 1.0948%
AUC%extrap [4]: 3.567 ± 5.0087%
Kel [4]: 0.7971 ± 0.3869 h⁻¹
dose proportionality of Cmax (across the 3 fasted dose levels (Treatments A, B, C), plasma): less than dose-proportional
Vd/F (both sexes, human, oral, Treatment D: single 133.3 mg/kg MT1621, fed (high-fat breakfast), baseline-adjusted plasma, arithmetic mean ± SD, read-out: Vz/F): 1660 ± 1470 L/kg
half-life (both sexes, human, plasma, oral, 43.3 mg/kg, 43.3 mg/kg dose level, read-out: geometric mean elimination half-life (converted)): 2.16 h
half-life (both sexes, human, plasma, oral, 43.3 mg/kg, Treatment A: single 43.3 mg/kg MT1621, fasted, baseline-adjusted plasma, arithmetic mean ± SD, read-out: t½ (converted)): 10.3 ± 8.2 h
AUC(0-inf) (both sexes, human, plasma, oral, 43.3 mg/kg, Treatment A: single 43.3 mg/kg MT1621, fasted, baseline-adjusted plasma, geometric mean (geometric CV %)): 48.4 ng·h/mL
AUC(0-t) (both sexes, human, plasma, oral, 43.3 mg/kg, Treatment A: single 43.3 mg/kg MT1621, fasted, baseline-adjusted plasma, geometric mean (geometric CV %), read-out: AUC0-4): 7.84 ng·h/mL
AUC(0-t) (both sexes, human, plasma, oral, 43.3 mg/kg, Treatment A: single 43.3 mg/kg MT1621, fasted, baseline-adjusted plasma, geometric mean (geometric CV %), read-out: AUC0-6): 9.58 ng·h/mL
AUC(0-t) (both sexes, human, plasma, oral, 43.3 mg/kg, Treatment A: single 43.3 mg/kg MT1621, fasted, baseline-adjusted plasma, geometric mean (geometric CV %), read-out: AUC0-48): 19.6 ng·h/mL
AUC(0-t) (both sexes, human, plasma, oral, 43.3 mg/kg, Treatment A: single 43.3 mg/kg MT1621, fasted, baseline-adjusted plasma, geometric mean (geometric CV %), read-out: AUC0-t): 13.5 ng·h/mL
Cmax (both sexes, human, plasma, oral, 43.3 mg/kg, Treatment A: single 43.3 mg/kg MT1621, fasted, baseline-adjusted plasma, geometric mean (geometric CV %), read-out: Cmax): 3.53 ng/mL
Tmax (both sexes, human, plasma, oral, 43.3 mg/kg, Treatment A: single 43.3 mg/kg MT1621, fasted, baseline-adjusted plasma, median (minimum, maximum), read-out: Tmax): 1.25 h
half-life (both sexes, human, plasma, oral, 86.7 mg/kg, 86.7 mg/kg dose level, read-out: geometric mean elimination half-life (converted)): 1.44 h
half-life (both sexes, human, plasma, oral, 86.7 mg/kg, Treatment B: single 86.7 mg/kg MT1621, fasted, baseline-adjusted plasma, arithmetic mean ± SD, read-out: t½ (converted)): 8.62 ± 8.68 h
AUC(0-inf) (both sexes, human, plasma, oral, 86.7 mg/kg, Treatment B: single 86.7 mg/kg MT1621, fasted, baseline-adjusted plasma, geometric mean (geometric CV %)): 26.6 ng·h/mL
AUC(0-t) (both sexes, human, plasma, oral, 86.7 mg/kg, Treatment B: single 86.7 mg/kg MT1621, fasted, baseline-adjusted plasma, geometric mean (geometric CV %), read-out: AUC0-4): 10.3 ng·h/mL
AUC(0-t) (both sexes, human, plasma, oral, 86.7 mg/kg, Treatment B: single 86.7 mg/kg MT1621, fasted, baseline-adjusted plasma, geometric mean (geometric CV %), read-out: AUC0-6): 12.8 ng·h/mL
AUC(0-t) (both sexes, human, plasma, oral, 86.7 mg/kg, Treatment B: single 86.7 mg/kg MT1621, fasted, baseline-adjusted plasma, geometric mean (geometric CV %), read-out: AUC0-48): 29.4 ng·h/mL
AUC(0-t) (both sexes, human, plasma, oral, 86.7 mg/kg, Treatment B: single 86.7 mg/kg MT1621, fasted, baseline-adjusted plasma, geometric mean (geometric CV %), read-out: AUC0-t): 23.2 ng·h/mL
Cmax (both sexes, human, plasma, oral, 86.7 mg/kg, Treatment B: single 86.7 mg/kg MT1621, fasted, baseline-adjusted plasma, geometric mean (geometric CV %), read-out: Cmax): 4.67 ng/mL
Tmax (both sexes, human, plasma, oral, 86.7 mg/kg, Treatment B: single 86.7 mg/kg MT1621, fasted, baseline-adjusted plasma, median (minimum, maximum), read-out: Tmax): 1.51 h
half-life (both sexes, human, plasma, oral, 133.3 mg/kg, 133.3 mg/kg dose level, read-out: geometric mean elimination half-life (converted)): 3.01 h
AUC(0-t) (both sexes, human, plasma, oral, 133.3 mg/kg, Treatment C, fasted, baseline-adjusted plasma, ANOVA on ln-transformed data, read-out: AUC0-t Geometric LSM, 133.3 mg/kg MT1621, Fasted (Reference)): 30.8 ng·h/mL
Cmax (both sexes, human, plasma, oral, 133.3 mg/kg, Treatment C, fasted, baseline-adjusted plasma, ANOVA on ln-transformed data, read-out: Cmax Geometric LSM, 133.3 mg/kg MT1621, Fasted (Reference)): 7.17 ng/mL
half-life (both sexes, human, plasma, oral, 133.3 mg/kg, Treatment C: single 133.3 mg/kg MT1621, fasted, baseline-adjusted plasma, arithmetic mean ± SD, read-out: t½ (converted)): 2.67 ± 1.98 h
AUC(0-inf) (both sexes, human, plasma, oral, 133.3 mg/kg, Treatment C: single 133.3 mg/kg MT1621, fasted, baseline-adjusted plasma, geometric mean (geometric CV %)): 22.5 ng·h/mL
AUC(0-t) (both sexes, human, plasma, oral, 133.3 mg/kg, Treatment C: single 133.3 mg/kg MT1621, fasted, baseline-adjusted plasma, geometric mean (geometric CV %), read-out: AUC0-4): 17.1 ng·h/mL
AUC(0-t) (both sexes, human, plasma, oral, 133.3 mg/kg, Treatment C: single 133.3 mg/kg MT1621, fasted, baseline-adjusted plasma, geometric mean (geometric CV %), read-out: AUC0-6): 21.1 ng·h/mL
AUC(0-t) (both sexes, human, plasma, oral, 133.3 mg/kg, Treatment C: single 133.3 mg/kg MT1621, fasted, baseline-adjusted plasma, geometric mean (geometric CV %), read-out: AUC0-48): 53.1 ng·h/mL
AUC(0-t) (both sexes, human, plasma, oral, 133.3 mg/kg, Treatment C: single 133.3 mg/kg MT1621, fasted, baseline-adjusted plasma, geometric mean (geometric CV %), read-out: AUC0-t): 30.8 ng·h/mL
Cmax (both sexes, human, plasma, oral, 133.3 mg/kg, Treatment C: single 133.3 mg/kg MT1621, fasted, baseline-adjusted plasma, geometric mean (geometric CV %), read-out: Cmax): 7.17 ng/mL
Tmax (both sexes, human, plasma, oral, 133.3 mg/kg, Treatment C: single 133.3 mg/kg MT1621, fasted, baseline-adjusted plasma, median (minimum, maximum), read-out: Tmax): 1.26 h
AUC(0-t) (both sexes, human, plasma, oral, 133.3 mg/kg, Treatment D, fed, baseline-adjusted plasma, ANOVA on ln-transformed data, read-out: AUC0-t Geometric LSM, 133.3 mg/kg MT1621, Fed (Test)): 73 ng·h/mL
Cmax (both sexes, human, plasma, oral, 133.3 mg/kg, Treatment D, fed, baseline-adjusted plasma, ANOVA on ln-transformed data, read-out: Cmax Geometric LSM, 133.3 mg/kg MT1621, Fed (Test)): 12.8 ng/mL
half-life (both sexes, human, plasma, oral, 133.3 mg/kg, Treatment D: single 133.3 mg/kg MT1621, fed (high-fat breakfast), baseline-adjusted plasma, arithmetic mean ± SD, read-out: t½ (converted)): 0.986 ± 0.478 h
AUC(0-inf) (both sexes, human, plasma, oral, 133.3 mg/kg, Treatment D: single 133.3 mg/kg MT1621, fed (high-fat breakfast), baseline-adjusted plasma, geometric mean (geometric CV %)): 138 ng·h/mL
AUC(0-t) (both sexes, human, plasma, oral, 133.3 mg/kg, Treatment D: single 133.3 mg/kg MT1621, fed (high-fat breakfast), baseline-adjusted plasma, geometric mean (geometric CV %), read-out: AUC0-4): 31.7 ng·h/mL
AUC(0-t) (both sexes, human, plasma, oral, 133.3 mg/kg, Treatment D: single 133.3 mg/kg MT1621, fed (high-fat breakfast), baseline-adjusted plasma, geometric mean (geometric CV %), read-out: AUC0-6): 48.2 ng·h/mL
AUC(0-t) (both sexes, human, plasma, oral, 133.3 mg/kg, Treatment D: single 133.3 mg/kg MT1621, fed (high-fat breakfast), baseline-adjusted plasma, geometric mean (geometric CV %), read-out: AUC0-48): 55.8 ng·h/mL
AUC(0-t) (both sexes, human, plasma, oral, 133.3 mg/kg, Treatment D: single 133.3 mg/kg MT1621, fed (high-fat breakfast), baseline-adjusted plasma, geometric mean (geometric CV %), read-out: AUC0-t): 73 ng·h/mL
Cmax (both sexes, human, plasma, oral, 133.3 mg/kg, Treatment D: single 133.3 mg/kg MT1621, fed (high-fat breakfast), baseline-adjusted plasma, geometric mean (geometric CV %), read-out: Cmax): 12.8 ng/mL
Tmax (both sexes, human, plasma, oral, 133.3 mg/kg, Treatment D: single 133.3 mg/kg MT1621, fed (high-fat breakfast), baseline-adjusted plasma, median (minimum, maximum), read-out: Tmax): 2.02 h
Tmax (both sexes, human, plasma, oral, under fasted conditions, read-out: median Tmax): 1 to 1.25 h
Tmax (both sexes, human, plasma, oral, under fed conditions, read-out: median Tmax): 1 h
plasma exposure compared to endogenous (baseline) concentrations (following MT1621, all 3 dose levels): consistently higher
